Assay [1] deals with LC-2/ad (CCDCl6-RET) cells. Nature of the assay: Cell proliferation assay (MTS), LC-2/ad cells. It is filed as cell-based. The settings on record: Homo sapiens, LC-2-ad, 72 h, LC-2/ad cells (CCDCl6-RET), 72 h incubation, MTS readout. As to the method:
(§1) MTS testing kit was purchased from Promega. The RPMI-1640, F12, F12K, Fetal bovine serum and Penicillin-Streptomycin were purchased from BI. Glutamine and Dimethyl sulfoxide (DMSO) were purchased from Sigma. TT cells were cultured in F12K supplemented with 10% FBS and LC-2/ad cells were cultured in HamF12: RPMI1640 (1:1) supplemented with 10% FBS and 2 mM Glutamine.
(§2) To investigate whether a compound is able to inhibit the activity of RET fusion and/or mutation in cells, a mechanism-based assay using TT (RET C634W) and LC-2/ad (CCDCl6-RET) cell lines was developed. In this assay, the inhibition of RET fusion and/or mutation was reflected by the inhibition of cell proliferation of TT and LC-2/ad cells. Cells were plated into 96-well plates at the optimized cell density (TT: 5000 cells/well; LC-2/ad: 5000 cells/well). Plates were incubated at 37° C., with 5% CO2 for 24 h. Compounds were serially diluted and added to the plates with the final concentrations as 10000, 3333.3, 1111.1, […], 123.5, 41.2, 13.7, 4.6 and 1.5 nM. Plates were incubated at 37° C., with 5% CO2 for 72 h. An aliquot of 20 μL MTS/100 μL medium mixture solution were added to each well and the plates were incubated for exactly 2 h. The reaction was stopped by adding 25 μL 10% SDS to each well. The absorbance was measured by a microplate reader at 490 nm and 650 nm (reference wavelength). IC50 was calculated using GraphPad Prism 5.0.

The next assay has as its system TT (RET C634W) cells. The assay can be described thus: Cell proliferation assay (MTS), TT cells. It is filed as cell-based. The settings on record: Homo sapiens, TT, 72 h, 72 h incubation, MTS readout. As to the method: as §1, §2

Turning to `COc1ccc(C(=O)N2CCN(c3ccc(-c4cc(-c5cnn(C)c5)cc5ncc(C#N)n45)cn3)CC2)cn1` [Example 2, 5-(6-(4-(6-Methoxynicotinoyl)piperazin-1-yl)pyridin-3-yl)-7-(1-methyl-1H-pyrazol-4-yl)imidazo[1,2-a]pyridine-3-carbonitrile], the IC50 – broadly, the midpoint of a concentration-inhibition curve – in assay [1] was 0.054 µM; in the assay on TT (RET C634W) cells, 0.063 µM.

Take `Cc1cccc(CN2CCN(c3ccc(-c4cc(-c5cnn(C)c5)cc5ncc(C#N)n45)cn3)CC2)n1` [Example 5, 7-(1-methyl-1H-pyrazol-4-yl)-5-(6-(4-((6-methylpyridin-2-yl)methyl)pi-perazin-1-yl)pyridin-3-yl)imidazo[1,2-a]pyridine-3-carbonitrile]: the concentration for half-maximal inhibition (IC50) in assay [1] worked out at 0.08 µM; with TT (RET C634W) cells, 0.071 µM.

With `COc1ccc(CN2CCN(c3ccc(-c4cc(-c5cnn(C)c5)cc5ncc(C#N)n45)cn3)CC2)cn1` [Example 6, 5-(6-(4-((6-methoxypyridin-3-yl)meth-yl)piperazin-1-yl)pyridin-3-yl)-7-(1-methyl-1H-pyrazol-4-yl)imidazo[1,2-a]pyridine-3-carbonitrile], the half-inhibitory concentration (IC50) turned out to be 0.044 µM in assay [1] and 0.042 µM with TT (RET C634W) cells.

Regarding `Cn1cc(-c2cc(-c3ccc(N4CCN(C(=O)[C@H](O)c5ccccc5)CC4)nc3)n3c(C#N)cnc3c2)cn1` [Example 7, (R)-5-(6-(4-(2-hydroxy-2-phenylace-tyl)piperazin-1-yl)pyridin-3-yl)-7-(1-methyl-1H-pyrazol-4-yl)imidazo[1,2-a]pyridine-3-carbonitrile], the figures for the half-maximal inhibitory concentration (IC50) (in assay [1]; in the assay with TT (RET C634W) cells) were 0.016 µM and 0.011 µM, respectively.

`CO[C@@H](C(=O)N1CCN(c2ccc(-c3cc(-c4cnn(C)c4)cc4ncc(C#N)n34)cn2)CC1)c1ccccc1` [Example 14, (R)-5-(6-(4-(2-methoxy-2-phenylace-tyl)piperazin-1-yl)pyridin-3-yl)-7-(1-methyl-1H-pyrazol-4-yl)imidazo[1,2-a]pyridine-3-carbonitrile]: the concentration for half-maximal inhibition (IC50) in assay [1] came to 0.013 µM; with TT (RET C634W) cells, 0.006 µM.

Turning to `CC(C)[C@@H](O)C(=O)N1CCN(c2ccc(-c3cc(-c4cnn(C)c4)cc4ncc(C#N)n34)cn2)CC1` [Example 17, (R)-5-(6-(4-(2-hydroxy-3-methylbuta-noyl)piperazin-1-yl)pyridin-3-yl)-7-(1-methyl-1H-pyrazol-4-yl)imidazo [1,2-a]pyridine-3-carbonitrile], the concentration for half-maximal inhibition (IC50) in assay [1] came out at 0.045 µM; in the assay with TT (RET C634W) cells it was 0.048 µM.

On to `Cn1cc(-c2cc(-c3ccc(N4CCC(Oc5ccccn5)CC4)nc3)n3c(C#N)cnc3c2)cn1` [Example 18, 7-(1-methyl-1H-pyrazol-4-yl)-5-(6-(4-(pyridin-2-yloxy)piperidin-1-yl)pyr-idin-3-yl)imidazo[1,2-a]pyridine-3-carbonitrile], for which the results for the concentration for half-maximal inhibition (IC50) (in assay [1]; with TT (RET C634W) cells) were 0.002 µM and 0.001 µM, respectively.

In the case of `COc1ccc(OC2CCN(c3ccc(-c4cc(-c5cnn(C)c5)cc5ncc(C#N)n45)cn3)CC2)nn1` [Example 19, 5-(6-(4-((6-methoxypyridazin-3-yl)oxy)piperidin-1-yl)pyridin-3-yl)-7-(1-methyl-1H-pyrazol-4-yl)imidazo[1,2-a]pyridine-3-carbonitrile], the IC50 in assay [1] was 0.006 µM; with TT (RET C634W) cells, 0.001 µM.

For `Cc1ccc(OC2CCN(c3ccc(-c4cc(-c5cnn(C)c5)cc5ncc(C#N)n45)cn3)CC2)nn1` [Example 20, 7-(1-methyl-1H-pyrazol-4-yl)-5-(6-(4-((6-methylpyridazin-3-yl)oxy)piper-idin-1-yl)pyridin-3-yl)imidazo[1,2-a]pyridine-3-carbonitrile], the concentration for half-maximal inhibition (IC50) in assay [1] amounted to 0.017 µM; with TT (RET C634W) cells, 0.006 µM.

With `Cn1cc(-c2cc(-c3ccc(N4CCC(O)(Cc5ccccn5)CC4)nc3)n3c(C#N)cnc3c2)cn1` [Example 21, 5-(6-(4-hydroxy-4-(pyridin-2-ylmeth-yl)piperidin-1-yl)pyridin-3-yl)-7-(1-methyl-1H-pyrazol-4-yl)imidazo[1,2-a]pyridine-3-carbonitrile], the half-inhibitory concentration (IC50) (in assay [1]; in the assay with TT (RET C634W) cells) was 0.012 µM throughout.

As for `Cn1cc(-c2cc(-c3ccc(N4CCC(O)(Cc5ccccc5)CC4)nc3)n3c(C#N)cnc3c2)cn1` [Example 22, 5-(6-(4-benzyl-4-hydroxypiperidin-1-yl)pyridin-3-yl)-7-(1-methyl-1H-pyr-azol-4-yl)imidazo[1,2-a]pyridine-3-carbonitrile], the IC50 was determined as 0.001 µM in assay [1] and 0.004 µM in the assay with TT (RET C634W) cells.

Take `COc1ccc(CN2CCN(c3ccc(-c4cc(-c5cnn(CCN6CCOCC6)c5)cc5ncc(C#N)n45)cn3)CC2)cn1` [Example 26, 5-(6-(4-((6-methoxypyridin-3-yl)meth-yl)piperazin-1-yl)pyridin-3-yl)-7-(1-(2-morpholinoethyl)-1H-pyrazol-4-yl)imidazo[1,2-a]pyridine-3-carbonitrile]: the IC50 in assay [1] turned out to be 0.089 µM; in the assay on TT (RET C634W) cells, 0.074 µM.

On to `COc1ccc(CN2CCN(c3ccc(-c4cc(-c5cnn(CCOC(C)C)c5)cc5ncc(C#N)n45)cn3)CC2)cn1` [Example 27, 7-(1-(2-isopropoxyethyl)-1H-pyrazol-4-yl)-5-(6-(4-((6-methoxypyridin-3-yl)methyl)piperazin-1-yl)pyridin-3-yl) imidazo[1,2-a]pyridine-3-carbonitrile], for which the IC50 in assay [1] amounted to 0.039 µM; in the assay on TT (RET C634W) cells, 0.065 µM.

On to `Cn1cc(-c2cc(-c3ccc(N4CCN(Cc5ccccc5)CC4)nc3)n3c(C#N)cnc3c2)cn1` [Example 33, 5-(6-(4-benzylpiperazin-1-yl)pyridin-3-yl)-7-(1-methyl-1H-pyrazol-4-yl) imidazo[1,2-a]pyridine-3-carbonitrile], for which the half-inhibitory concentration (IC50) was 0.017 µM in assay [1] and 0.034 µM with TT (RET C634W) cells.

Regarding `Cn1cc(-c2cc(-c3ccc(N4CCN(Cc5ccn(C)n5)CC4)nc3)n3c(C#N)cnc3c2)cn1` [Example 37, 5-(6-(4-((1-methyl-1H-pyrazol-3-yl)methyl)piperazin-1-yl)pyridin-3-yl)-7-(1-methyl-1H-pyrazol-4-yl)imidazo [1,2-a]pyridine-3-carbonitrile], the IC50 in assay [1] came out at 0.041 µM; in the assay on TT (RET C634W) cells, 0.045 µM.

In the case of `Cn1cc(-c2cc(-c3ccc(N4CCN(CCS(=O)(=O)c5ccccc5)CC4)nc3)n3c(C#N)cnc3c2)cn1` [Example 38, 7-(1-methyl-1H-pyrazol-4-yl)-5-(6-(4-(2-(phenylsulfonyl)ethyl)piperazin-1-yl)pyridin-3-yl)imidazo[1,2-a]pyr-idine-3-carbonitrile], the concentration for half-maximal inhibition (IC50) in assay [1] is 0.034 µM; with TT (RET C634W) cells it was 0.038 µM.

On to `Cn1cc(-c2cc(-c3ccc(N4CCN(C(=O)Cc5ccccn5)CC4)cc3)n3c(C#N)cnc3c2)cn1` [Example 45, 7-(1-methyl-1H-pyrazol-4-yl)-5-(4-(4-(2-(pyridin-2-yl)acetyl)piperazin-1-yl)phenyl)imidazo[1,2-a]pyridine-3-carbonitrile], for which the IC50 in assay [1] came to 0.05 µM; with TT (RET C634W) cells, 0.066 µM.

Regarding `Cn1cc(-c2cc(-c3ccc(N4CCN(C(=O)Cc5ccccn5)CC4)nc3)n3c(C#N)cnc3c2)cn1` [Example 46, 7-(1-methyl-1H-pyrazol-4-yl)-5-(6-(4-(2-(pyridin-2-yl)acetyl)piperazin-1-yl)pyridin-3-yl)imidazo[1,2-a]pyri-dine-3-carbonitrile], the concentration for half-maximal inhibition (IC50) in assay [1] was 0.036 µM; with TT (RET C634W) cells, 0.037 µM.

Turning to `CC(C)CC(=O)N1CCN(c2ccc(-c3cc(-c4cnn(C)c4)cc4ncc(C#N)n34)cn2)CC1` [Example 48, 7-(1-methyl-1H-pyrazol-4-yl)-5-(6-(4-(3-methylbutanoyl)piperazin-1-yl)pyridin-3-yl)imidazo[1,2-a]pyridine-3-carbonitrile], the IC50 in assay [1] stood at 0.05 µM; in the assay on TT (RET C634W) cells it was 0.077 µM.

In the case of `COC(CNC(=O)N1CCN(c2ccc(-c3cc(-c4cnn(C)c4)cc4ncc(C#N)n34)cn2)CC1)C(C)C` (centres unmarked) [Example 50, 4-(5-(3-cyano-7-(1-methyl-1H-pyrazol-4-yl)imidazo[1,2-a]pyridin-5-yl)pyridin-2-yl)-N-(2-methoxy-3-methyl-butyl)piperazine-1-carboxamide], the IC50 in assay [1] was 0.03 µM; with TT (RET C634W) cells it was 0.014 µM.

In the case of `CC(C)OCCN1CCN(c2ccc(-c3cc(-c4cnn(C)c4)cc4ncc(C#N)n34)cn2)CC1` [Example 51, 5-(6-(4-(2-isopropoxyethyl)piperazin-1-yl)pyridin-3-yl)-7-(1-methyl-1H-pyrazol-4-yl)imidazo[1,2-a]pyridine-3-carbonitrile], the values for the IC50 (in assay [1]; in the assay on TT (RET C634W) cells) were 0.04 µM and 0.044 µM, respectively.

Turning to `COc1ccc(O[C@@H]2CCN(c3ccc(-c4cc(OCC(C)(C)O)cc5ncc(C#N)n45)cn3)C2)cn1` [Example 95, (R)-7-(2-hydroxy-2-methylpropoxy)-5-(6-(3-((6-methoxypyridin-3-yl)oxy)pyrrolidin-1-yl)pyridin-3-yl)imidazo[1,2-a]pyridine-3-carbonitrile], in the assay with TT (RET C634W) cells, the midpoint of inhibition, the IC50, lay at 0.007 µM.

Take `COc1ccc(O[C@@H]2CCN(c3ccc(-c4cc(OCC5(O)CC5)cc5ncc(C#N)n45)cn3)C2)cn1` [Example 96, (R)-7-((1-hydroxycyclopropyl)methoxy)-5-(6-(3-((6-methoxypyridin-3-yl)oxy)pyr-rolidin-1-yl)pyridin-3-yl)imidazo[1,2-a] pyridine-3-carbonitrile]: in the assay with TT (RET C634W) cells, the IC50 worked out at 0.009 µM.

(Values after patent publication US20220041588A1, “SUBSTITUTED IMIDAZO[1,2-A]PYRIDINE AND [1,2,4]TRIAZOLO[1,5-A]PYRIDINE COMPOUNDS AS RET KINASE INHIBITORS” (FOCHON PHARMACEUTICALS, LTD., priority 2018, published 2022).)
